Laboratory results as given in patent US4061753A, “Treating psoriasis with transient pro-drug forms of xanthine derivatives” (INTERx Research Corporation, priority 1976, dated 1977).
Values after ≈ are worked out from the molar mass of the structure shown.

Key:
[1] = Partition Coefficient Studies (water solubility, heptane solubility, water/heptane partition)
[2] = system: phosphodiesterase; details: Sutherland and Rall 1958; cited from earlier work
[3] = e.g., heptane; cited from earlier work
[4] = Stability of the 7-hydroxymethyl derivative in water; type: physicochemical
[5] = heptane, organic solvent or mixture

Row | Compound | solubility [1, 5] [mg/mL] | solubility ([1]; water) [mg/mL] | Water/Heptane partition coefficient [1] | further results
1 | CCCCCC(=O)OCn1cnc2c1c(=O)n(C)c(=O)n2C [C5 H11, 7-Hexanoyloxymethyl-theophylline] | 2.26 (≈ 7.33 mM) | 0.11 (≈ 0.357 mM) | 0.42 | 
2 | CN(C)CC(=O)OCn1cnc2c1c(=O)n(C)c(=O)n2C |  | > 1000 |  | Heptane (solubility) ([1]; heptane): < 10 mg/500 ml
3 | Cn1c(=O)c2[nH]cnc2n(C)c1=O [theophylline] |  |  |  | effect on degradation of cyclic AMP by inhibiting phosphodiesterase activity [2]: decrease the degradation of cyclic AMP by inhibiting phosphodiesterase activity; solubility in lipid-like solvents [3]: almost insoluble
4 | Cn1c(=O)c2c(ncn2CO)n(C)c1=O [7-hydroxymethyl derivative, 7-hydroxymethyl theophylline] |  |  |  | stability in water [4]: extremely unstable in water
5 | CCCCCCCC(=O)OCn1cnc2c1c(=O)n(C)c(=O)n2C [C7 H15, 7-Octanoyloxymethyl-theophylline] | 0.52 (≈ 1.55 mM) | 0.12 (≈ 0.357 mM) | 0.06 | 
6 | CCC(=O)OCn1cnc2c1c(=O)n(C)c(=O)n2C [C2 H5, 7-Propionyloxymethyl-theophylline] | 0.18 (≈ 0.676 mM) | 3.87 (≈ 14.5 mM) | 32.0 | 
7 | CCN(CC)C(=O)CCC(=O)OCn1cnc2c1c(=O)n(C)c(=O)n2C | 0.17 (≈ 0.465 mM) | 26.3 (≈ 72 mM) |  | 
8 | Cn1c(=O)c2c(ncn2COC(=O)C(C)(C)C)n(C)c1=O [C(CH3)3, 7-Pivalyloxymethyl-theophylline] | 1.55 (≈ 5.27 mM) | 2.01 (≈ 6.83 mM) | 1.11 | 
9 | CCCC(=O)OCn1cnc2c1c(=O)n(C)c(=O)n2C [C3 H7, 7-Butanoyloxymethyl-theophylline] | 0.65 (≈ 2.32 mM) | 3.89 (≈ 13.9 mM) | 6.30 | 
